As usually defined, the remaining activity is the signal under treatment as a percentage of the control signal.

Experiment in all cases: kinase profiling panel
Assay type in all cases: biochemical

One assay concerns the target T1, PINK (Tribolium castaneum, UniProt D6WMX4).
T1 sequence (D6WMX4 1-570): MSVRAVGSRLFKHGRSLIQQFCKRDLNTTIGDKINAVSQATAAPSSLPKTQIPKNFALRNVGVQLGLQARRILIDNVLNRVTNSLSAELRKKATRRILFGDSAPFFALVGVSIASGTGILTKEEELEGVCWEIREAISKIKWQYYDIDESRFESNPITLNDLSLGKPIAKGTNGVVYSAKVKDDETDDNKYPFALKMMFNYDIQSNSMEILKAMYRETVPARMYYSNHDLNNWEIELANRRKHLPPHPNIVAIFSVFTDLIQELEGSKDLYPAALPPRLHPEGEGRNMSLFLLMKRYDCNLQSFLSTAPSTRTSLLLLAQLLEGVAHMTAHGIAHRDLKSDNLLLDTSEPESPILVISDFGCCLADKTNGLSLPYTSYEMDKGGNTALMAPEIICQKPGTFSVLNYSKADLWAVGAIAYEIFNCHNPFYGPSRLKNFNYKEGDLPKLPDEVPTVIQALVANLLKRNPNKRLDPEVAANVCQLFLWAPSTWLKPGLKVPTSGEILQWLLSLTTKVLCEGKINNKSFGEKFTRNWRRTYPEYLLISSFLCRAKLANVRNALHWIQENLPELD
From the text:
(§1) Protein kinase profiling against a Dundee panel of 140 protein kinases was undertaken at the International Centre for Protein Kinase Profiling. The result for each kinase was presented as a mean kinase activity of the reaction taken in triplicate relative to a control sample treated with DMSO. Assay conditions and abbreviations are available at http://www.kinase-screen.mrc.ac.uk.

Another assay has as its target Aurora B (Homo sapiens, UniProt Q96GD4). Particulars: read-out: % Activity Remaining.
Text: as §1

A further assay addresses CLK2 (Homo sapiens, UniProt P49760). Particulars: read-out: % Activity Remaining.
Text: as §1

A further assay addresses MKK2 (Homo sapiens, UniProt P36507). Particulars: read-out: % Activity Remaining.
Text: as §1

Another assay concerns the target T2, ULK2 (Homo sapiens, UniProt Q8IYT8).
T2 sequence (Q8IYT8 1-1036): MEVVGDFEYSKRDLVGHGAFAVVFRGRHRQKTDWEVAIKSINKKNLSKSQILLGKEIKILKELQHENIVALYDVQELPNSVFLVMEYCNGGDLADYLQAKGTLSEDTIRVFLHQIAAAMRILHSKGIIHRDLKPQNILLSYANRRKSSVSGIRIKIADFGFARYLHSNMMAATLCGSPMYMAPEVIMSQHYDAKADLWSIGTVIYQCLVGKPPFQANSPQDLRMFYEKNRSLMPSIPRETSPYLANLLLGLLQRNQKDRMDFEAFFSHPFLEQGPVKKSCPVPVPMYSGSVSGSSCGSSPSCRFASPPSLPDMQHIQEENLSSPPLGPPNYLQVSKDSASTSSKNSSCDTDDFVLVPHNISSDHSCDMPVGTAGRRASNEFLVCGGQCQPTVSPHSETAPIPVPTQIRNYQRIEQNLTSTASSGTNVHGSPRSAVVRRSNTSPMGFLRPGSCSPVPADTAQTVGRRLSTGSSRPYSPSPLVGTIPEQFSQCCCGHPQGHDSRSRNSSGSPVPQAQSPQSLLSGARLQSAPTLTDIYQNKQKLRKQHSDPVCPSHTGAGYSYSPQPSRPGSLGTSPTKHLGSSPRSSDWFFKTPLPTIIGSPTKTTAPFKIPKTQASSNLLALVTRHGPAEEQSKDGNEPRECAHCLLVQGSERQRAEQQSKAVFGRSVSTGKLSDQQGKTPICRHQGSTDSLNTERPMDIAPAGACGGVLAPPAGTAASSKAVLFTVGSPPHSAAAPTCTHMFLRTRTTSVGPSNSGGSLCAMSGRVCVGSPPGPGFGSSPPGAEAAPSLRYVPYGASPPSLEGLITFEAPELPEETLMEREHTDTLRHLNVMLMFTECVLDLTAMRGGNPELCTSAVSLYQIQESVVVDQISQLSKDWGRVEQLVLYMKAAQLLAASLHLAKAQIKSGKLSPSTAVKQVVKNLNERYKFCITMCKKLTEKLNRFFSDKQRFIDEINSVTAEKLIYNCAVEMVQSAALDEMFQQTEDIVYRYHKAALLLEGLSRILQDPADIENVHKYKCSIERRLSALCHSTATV
The note with it: read-out: % Activity Remaining.
Text: as §1

A further assay has as its target ROCK 2 (Homo sapiens, UniProt O75116). The note with it: read-out: % Activity Remaining.
Text: as §1

The target in the next assay is FGF-R1 (Homo sapiens, UniProt P11362). The note with it: read-out: % Activity Remaining.
Chain of FGF-R1 (P11362 22-822): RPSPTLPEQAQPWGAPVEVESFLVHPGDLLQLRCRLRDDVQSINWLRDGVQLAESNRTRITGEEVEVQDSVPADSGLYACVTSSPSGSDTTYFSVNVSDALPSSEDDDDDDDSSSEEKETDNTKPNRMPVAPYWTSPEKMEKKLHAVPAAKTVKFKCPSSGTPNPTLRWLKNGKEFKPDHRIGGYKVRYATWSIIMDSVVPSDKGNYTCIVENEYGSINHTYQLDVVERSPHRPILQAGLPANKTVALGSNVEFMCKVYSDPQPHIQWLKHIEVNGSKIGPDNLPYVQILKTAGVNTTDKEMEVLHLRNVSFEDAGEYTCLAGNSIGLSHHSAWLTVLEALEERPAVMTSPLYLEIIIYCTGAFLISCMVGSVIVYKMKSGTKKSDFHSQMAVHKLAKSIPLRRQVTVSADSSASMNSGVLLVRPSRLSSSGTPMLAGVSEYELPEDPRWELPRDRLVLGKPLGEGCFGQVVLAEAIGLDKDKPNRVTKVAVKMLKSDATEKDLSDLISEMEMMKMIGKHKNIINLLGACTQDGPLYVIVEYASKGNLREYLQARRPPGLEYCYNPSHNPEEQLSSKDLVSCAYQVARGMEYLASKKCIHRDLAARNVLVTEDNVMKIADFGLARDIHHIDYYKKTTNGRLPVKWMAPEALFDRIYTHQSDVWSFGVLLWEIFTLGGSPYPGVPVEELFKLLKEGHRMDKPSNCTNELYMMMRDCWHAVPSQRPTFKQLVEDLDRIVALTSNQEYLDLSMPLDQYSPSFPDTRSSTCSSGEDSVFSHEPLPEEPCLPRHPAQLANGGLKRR
Text: as §1

Another assay concerns the target T3, Aurora A (Homo sapiens, UniProt O14965).
T3 sequence (O14965 1-403): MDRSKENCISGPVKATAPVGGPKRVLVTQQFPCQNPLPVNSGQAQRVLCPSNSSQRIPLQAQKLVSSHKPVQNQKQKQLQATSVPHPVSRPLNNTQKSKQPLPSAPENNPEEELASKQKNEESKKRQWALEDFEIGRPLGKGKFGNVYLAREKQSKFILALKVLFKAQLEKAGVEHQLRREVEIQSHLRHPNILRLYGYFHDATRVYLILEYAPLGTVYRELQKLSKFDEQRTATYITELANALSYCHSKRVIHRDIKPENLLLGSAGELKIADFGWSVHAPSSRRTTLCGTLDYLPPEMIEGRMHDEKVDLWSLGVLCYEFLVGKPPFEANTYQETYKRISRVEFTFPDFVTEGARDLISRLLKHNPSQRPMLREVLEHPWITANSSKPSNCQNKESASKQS
The note with it: read-out: % Activity Remaining.
Text: as §1

In the next assay the target is ERK5 (Homo sapiens, UniProt Q13164). The note with it: read-out: % Activity Remaining.
Chain of ERK5 (Q13164 whole entry): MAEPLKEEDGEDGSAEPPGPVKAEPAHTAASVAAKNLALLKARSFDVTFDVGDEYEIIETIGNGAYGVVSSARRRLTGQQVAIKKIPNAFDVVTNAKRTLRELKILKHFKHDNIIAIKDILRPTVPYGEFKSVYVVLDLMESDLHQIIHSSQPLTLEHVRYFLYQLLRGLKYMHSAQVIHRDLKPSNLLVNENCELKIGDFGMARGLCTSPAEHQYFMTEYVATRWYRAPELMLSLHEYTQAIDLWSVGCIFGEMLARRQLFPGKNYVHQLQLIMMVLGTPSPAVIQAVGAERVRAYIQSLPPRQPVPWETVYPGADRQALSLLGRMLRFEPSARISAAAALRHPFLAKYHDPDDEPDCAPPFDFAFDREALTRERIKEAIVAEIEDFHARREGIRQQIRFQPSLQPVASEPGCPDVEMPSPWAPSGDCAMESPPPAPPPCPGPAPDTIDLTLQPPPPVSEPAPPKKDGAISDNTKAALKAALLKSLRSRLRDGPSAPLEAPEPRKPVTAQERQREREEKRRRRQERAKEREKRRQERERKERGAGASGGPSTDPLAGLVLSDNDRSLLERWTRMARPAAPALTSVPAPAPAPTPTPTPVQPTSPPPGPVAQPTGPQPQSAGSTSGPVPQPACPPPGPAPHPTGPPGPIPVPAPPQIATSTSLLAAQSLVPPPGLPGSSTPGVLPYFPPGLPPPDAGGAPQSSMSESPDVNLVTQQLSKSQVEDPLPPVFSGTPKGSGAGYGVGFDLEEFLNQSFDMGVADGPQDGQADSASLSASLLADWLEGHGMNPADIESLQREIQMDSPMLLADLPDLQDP
Text: as §1

In another assay the target is MKK1 (Homo sapiens, UniProt Q02750). Particulars: read-out: % Activity Remaining.
Chain of MKK1 (Q02750 whole entry): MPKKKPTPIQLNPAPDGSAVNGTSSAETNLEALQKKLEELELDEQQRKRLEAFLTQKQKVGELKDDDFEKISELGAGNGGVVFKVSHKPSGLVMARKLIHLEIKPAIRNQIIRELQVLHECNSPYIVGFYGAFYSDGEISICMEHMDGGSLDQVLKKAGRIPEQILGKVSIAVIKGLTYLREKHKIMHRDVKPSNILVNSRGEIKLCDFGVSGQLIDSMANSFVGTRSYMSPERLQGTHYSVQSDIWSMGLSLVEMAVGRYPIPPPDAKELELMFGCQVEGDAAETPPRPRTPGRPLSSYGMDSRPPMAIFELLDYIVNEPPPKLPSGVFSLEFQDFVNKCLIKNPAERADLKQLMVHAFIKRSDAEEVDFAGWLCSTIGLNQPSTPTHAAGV
Text: as §1

In the next assay the target is RSK1 (Homo sapiens, UniProt Q15418). The note with it: read-out: % Activity Remaining.
Chain of RSK1 (Q15418 whole entry): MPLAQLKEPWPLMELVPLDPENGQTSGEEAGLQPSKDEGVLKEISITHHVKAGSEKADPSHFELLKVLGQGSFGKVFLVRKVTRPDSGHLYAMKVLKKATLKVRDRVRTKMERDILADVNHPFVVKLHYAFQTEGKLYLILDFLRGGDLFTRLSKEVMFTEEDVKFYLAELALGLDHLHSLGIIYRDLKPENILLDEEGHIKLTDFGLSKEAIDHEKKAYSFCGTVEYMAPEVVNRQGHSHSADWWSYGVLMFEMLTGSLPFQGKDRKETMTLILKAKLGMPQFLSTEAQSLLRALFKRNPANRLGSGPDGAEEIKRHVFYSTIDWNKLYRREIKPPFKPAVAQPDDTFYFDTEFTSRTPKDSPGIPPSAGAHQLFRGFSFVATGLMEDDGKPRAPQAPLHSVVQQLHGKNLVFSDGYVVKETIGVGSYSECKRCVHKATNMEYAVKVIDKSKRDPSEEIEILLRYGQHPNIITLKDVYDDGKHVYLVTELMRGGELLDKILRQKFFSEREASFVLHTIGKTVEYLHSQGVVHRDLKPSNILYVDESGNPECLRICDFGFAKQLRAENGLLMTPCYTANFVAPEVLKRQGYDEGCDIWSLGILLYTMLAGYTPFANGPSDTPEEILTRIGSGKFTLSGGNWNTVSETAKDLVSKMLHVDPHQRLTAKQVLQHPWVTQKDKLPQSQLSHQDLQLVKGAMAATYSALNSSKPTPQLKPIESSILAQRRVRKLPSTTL
Text: as §1

Like-named read-outs stand apart in the source and are kept apart here.

Chain of CLK2 (P49760 whole entry): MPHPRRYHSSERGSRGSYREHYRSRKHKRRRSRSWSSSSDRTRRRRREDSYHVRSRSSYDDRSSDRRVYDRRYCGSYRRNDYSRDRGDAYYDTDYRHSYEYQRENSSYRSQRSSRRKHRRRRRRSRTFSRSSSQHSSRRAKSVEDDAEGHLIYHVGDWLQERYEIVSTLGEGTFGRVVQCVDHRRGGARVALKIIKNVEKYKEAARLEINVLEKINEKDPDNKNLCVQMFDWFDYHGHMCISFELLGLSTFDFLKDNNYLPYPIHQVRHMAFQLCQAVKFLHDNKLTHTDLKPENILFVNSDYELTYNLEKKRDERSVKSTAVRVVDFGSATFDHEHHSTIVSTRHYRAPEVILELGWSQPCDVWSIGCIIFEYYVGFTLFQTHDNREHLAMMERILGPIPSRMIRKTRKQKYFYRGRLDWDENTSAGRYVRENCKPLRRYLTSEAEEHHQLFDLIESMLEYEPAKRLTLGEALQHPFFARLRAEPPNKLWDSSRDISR
Chain of Aurora B (Q96GD4 whole entry): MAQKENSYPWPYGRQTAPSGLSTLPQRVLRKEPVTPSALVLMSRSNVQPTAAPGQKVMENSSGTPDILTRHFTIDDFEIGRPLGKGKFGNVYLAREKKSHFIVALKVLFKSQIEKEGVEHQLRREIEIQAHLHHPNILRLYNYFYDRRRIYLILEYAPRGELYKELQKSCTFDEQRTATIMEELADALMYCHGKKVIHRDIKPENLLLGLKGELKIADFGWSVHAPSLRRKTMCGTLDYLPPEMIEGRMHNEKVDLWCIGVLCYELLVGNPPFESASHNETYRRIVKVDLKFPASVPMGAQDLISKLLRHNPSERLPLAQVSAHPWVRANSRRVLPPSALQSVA
Chain of ROCK 2 (O75116 whole entry): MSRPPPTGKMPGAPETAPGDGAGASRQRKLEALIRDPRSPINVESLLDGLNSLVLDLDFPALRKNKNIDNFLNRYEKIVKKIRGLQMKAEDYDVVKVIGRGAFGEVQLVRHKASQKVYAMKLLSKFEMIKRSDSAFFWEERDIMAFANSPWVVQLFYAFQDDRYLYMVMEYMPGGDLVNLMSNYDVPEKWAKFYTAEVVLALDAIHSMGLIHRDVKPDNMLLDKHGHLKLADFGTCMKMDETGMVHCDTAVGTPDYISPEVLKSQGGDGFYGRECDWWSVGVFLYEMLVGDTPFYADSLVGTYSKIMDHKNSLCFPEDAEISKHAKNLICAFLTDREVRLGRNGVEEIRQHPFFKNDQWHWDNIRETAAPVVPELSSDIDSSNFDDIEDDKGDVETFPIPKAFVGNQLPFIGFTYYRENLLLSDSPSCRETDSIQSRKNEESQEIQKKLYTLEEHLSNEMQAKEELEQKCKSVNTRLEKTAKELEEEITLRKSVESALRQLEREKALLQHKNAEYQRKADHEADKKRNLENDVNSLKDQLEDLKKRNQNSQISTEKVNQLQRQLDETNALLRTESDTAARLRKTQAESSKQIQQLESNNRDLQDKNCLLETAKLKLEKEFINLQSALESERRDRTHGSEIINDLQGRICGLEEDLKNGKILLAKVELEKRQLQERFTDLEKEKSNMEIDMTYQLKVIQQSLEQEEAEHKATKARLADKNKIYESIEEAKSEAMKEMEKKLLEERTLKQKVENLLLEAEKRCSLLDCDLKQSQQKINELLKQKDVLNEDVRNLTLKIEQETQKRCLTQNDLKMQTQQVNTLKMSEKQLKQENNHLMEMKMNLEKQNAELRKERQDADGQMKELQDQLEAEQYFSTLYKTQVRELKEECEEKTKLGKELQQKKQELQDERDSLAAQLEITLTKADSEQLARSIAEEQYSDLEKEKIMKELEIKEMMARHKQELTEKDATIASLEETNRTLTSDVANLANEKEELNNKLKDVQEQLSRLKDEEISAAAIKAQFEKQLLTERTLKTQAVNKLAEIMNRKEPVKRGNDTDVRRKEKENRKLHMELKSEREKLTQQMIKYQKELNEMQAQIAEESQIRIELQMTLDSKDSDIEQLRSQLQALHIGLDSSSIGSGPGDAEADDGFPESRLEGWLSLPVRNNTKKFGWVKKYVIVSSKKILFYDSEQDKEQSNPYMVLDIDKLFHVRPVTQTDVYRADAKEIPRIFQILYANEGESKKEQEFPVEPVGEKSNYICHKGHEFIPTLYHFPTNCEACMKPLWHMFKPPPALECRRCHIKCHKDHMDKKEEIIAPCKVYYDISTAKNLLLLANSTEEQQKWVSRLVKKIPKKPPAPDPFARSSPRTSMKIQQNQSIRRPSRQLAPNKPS

For the compound `COc1ccc(Cl)c(S(=O)(=O)Nc2ccc(-c3nc(OC[C@H]4CNCCO4)c4c(C)n[nH]c4n3)cc2)c1` [290-R, reference compound], the remaining activity at 1 µM was 99% at PINK; 70% at Aurora B; 88% at CLK2; 41% at MKK2; 46% on ULK2; 105% on ROCK 2. Further, the remaining activity at 1 µM at FGF-R1 turned out to be 104%; on Aurora A it was 108%; on ERK5 it was 84%; at MKK1 it was 66%; on RSK1 it was 7%.
In the case of `Cc1ccc(F)c(S(=O)(=O)Nc2ccc(-c3nc(OC[C@H]4CNCCO4)c4cn[nH]c4n3)cc2)c1` [308-R, reference compound], the remaining activity at 1 µM at PINK turned out to be 119%; on Aurora B, 115%; at CLK2, 104%; at MKK2, 80%; on ULK2, 59%; at ROCK 2, 74%. Also, the remaining activity at 1 µM on FGF-R1 came to 115%; on Aurora A, 109%; on ERK5, 73%; on MKK1, 62%; on RSK1, 7%.
Take `Cc1ccc(F)c(S(=O)(=O)Nc2ccc(-c3nc(OC[C@H]4CN(CCCCCCOCCOCCOCC(=O)N[C@H](C(=O)N5C[C@H](O)C[C@H]5C(=O)NCc5ccc(-c6scnc6C)cc5)C(C)(C)C)CCO4)c4cn[nH]c4n3)cc2)c1` [SGK3-PROTAC1]: the remaining activity at 1 µM at PINK came out at 108%; at Aurora B (1 µM) it was 93%; at CLK2 (1 µM), 104%; on MKK2 (1 µM) it was 114%; on ULK2 (1 µM), 103%; on ROCK 2 (1 µM), 113%. In addition, the remaining activity at 1 µM was found to be 108% at FGF-R1 (1 µM); 90% at Aurora A (1 µM); 102% on ERK5 (1 µM); 106% on MKK1 (1 µM); 83% at RSK1 (1 µM).
For the compound `Cc1ccc(F)c(S(=O)(=O)Nc2ccc(-c3nc(OC[C@H]4CN(CCCCCCOCCOCCOCC(=O)N[C@H](C(=O)N5C[C@@H](O)C[C@H]5C(=O)NCc5ccc(-c6scnc6C)cc5)C(C)(C)C)CCO4)c4cn[nH]c4n3)cc2)c1` [cisSGK3-PROTAC1], the remaining activity at 1 µM on PINK was 109%; at Aurora B (1 µM), 95%; on CLK2 (1 µM) it was 85%; at MKK2 (1 µM), 124%; at ULK2 (1 µM), 117%; at ROCK 2 (1 µM), 119%. Further, the remaining activity at 1 µM on FGF-R1 (1 µM) turned out to be 106%; at Aurora A (1 µM), 91%; on ERK5 (1 µM), 108%; at MKK1 (1 µM), 102%; on RSK1 (1 µM) it was 90%.
